The values below come from patent US20260335282A1, “NOVEL 3-ARYLIDENE-2-INDOLINONE DERIVATIVES FOR THERAPEUTIC USE” (ISTANBUL UNIVERSITESI REKTORLUGU, priority 2022, published 2026).

The test system of data set [1] is HT-29 and MKN-45 cells. To be noted: Wang et al. 2021; cited from earlier work.
Data set [2] concerns angiogenesis. Particulars: transgenic zebrafish, Wang et al. 2021; cited from earlier work.
For data set [3], the system named is HUVEC cell line. Particulars: Wang et al. 2021; cited from earlier work.
The subject of data set [4] is VEGFR-2. Particulars: Wang et al. 2021; cited from earlier work.
Data set [5] has as its system MIAPaCa-2 cells. Briefly: MTT cytotoxicity, pancreas cancer cells MIAPaCa-2. The data set is classed as cell-based, human. To be noted: MTT, no * mark (incubation time not specified). In a few lines:
(§1)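 Cells were seeded at 5000 per well and treated next day with compound at 0.1, 1, 5 and 10 μM (final) for 48 and/or 72 h, with matched DMSO controls. MTT was added for 4 h and formazan was dissolved in DMSO and read at 570/630 nm. % viability against control gave IC50 from dose-response curves.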

Data set [6] has as its system CAKI-1 cells. Briefly: MTT cytotoxicity, kidney cancer cells CAKI-1. The data set is classed as cell-based, human. In a few lines: (§2)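 Cells exposed to compounds at 0.1, 1, 5 and 10 μM (DMSO vehicle-matched controls) for 48 and/or 72 h, then MTT 4 h; formazan in DMSO read at 570/630 nm. Viability as % of control; IC50 from dose-response curves. Healthy cells tested at 10-fold the cancer-cell IC50 concentration.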

For data set [7], the system named is HT-29 cells. Briefly: MTT cytotoxicity, colon cancer cells HT-29. The data set is classed as cell-based, human. Particulars: MTT, no * mark (incubation time not specified). In a few lines:
as §1

Data set [8] deals with MDA-MB-231 cells. Put plainly: MTT cytotoxicity, breast cancer cells MDA-MB-231. Particulars: read-out: IC50, MDA-MB-231 (breast); MTT, no * mark (incubation time not given). The data set is classed as cell-based, human. The gist of the method:
as §2

Data set [9] has as its system MCF-7 cells. Briefly: MTT cytotoxicity, breast cancer cells MCF-7. The data set is classed as cell-based, human. Particulars: MTT, no * mark (incubation time not specified). In a few lines:
as §2

Data set [10] relates to A549 cells. Put plainly: MTT cytotoxicity, lung cancer cells A549. The data set is classed as cell-based, human. To be noted: no * mark (incubation time not specified). The gist of the method:
as §2

Data set [11] relates to MCF-10F/Beas2b cells. Briefly: MTT cytotoxicity, healthy cells MCF-10F/Beas2b. The data set is classed as cell-based, human. In a few lines: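 Following seeding and next-day dosing at 0.1, 1, 5 and 10 μM, plates incubate 48 and/or 72 h. MTT is then applied for 4 h and dissolved crystals measured at 570 nm (630 nm reference); cell-free compound+MTT wells control for interference, and IC50 is calculated per compound.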

Data set [12] deals with A498 cells. Briefly: MTT cytotoxicity, kidney cancer cells A498. The data set is classed as cell-based, human. To be noted: for pIC50: MTT. In a few lines: as §2
Data set [13] has as its system HCT-116 cells. Briefly: MTT cytotoxicity, colon cancer cells HCT-116. To be noted: no * mark (incubation time not specified). The data set is classed as cell-based, human. The gist of the method:
as §1

Data set [14] deals with general tyrosine kinase activity in A498 kidney cancer cells. Put plainly: General tyrosine kinase activity (ELISA) in A498 cells. To be noted: 72 h, IC50 concentration. The data set is classed as cell-based, human. On the procedure: (§3) Takara Universal Tyrosine Kinase Assay Kit is used to determine the effects of 11 2-indolinone compounds (Y1, Y2, Y3, Y4, Y5, Y8, […], […], Y21, Y23, 20C, 22C) on general tyrosine kinase activity in cancer cells. Cells are seeded in 6-well plates (4.10^5 cells/well) and the IC50 concentration of each selected molecule is performed to the cells for 48 or 72 hours. Cells in the control group are incubated with medium only. At the end of the incubation period, the cells in each well are washed with PBS and cells are removed from the wells using a cell scraper via 1 ml of the extraction buffer in the kit. The cell lysate is transferred to ependorf tubes and centrifuged at 10.000 g for 10 minutes at +4° C. and the supernatant is used as a sample for activity determination. After the extracts obtained from the control and experimental groups are diluted 1:25, 40 μl extracts is transferred to two wells in the 96-well plate in the kit. In addition, the standard solution in the kit is diluted according to the kit instructions and each concentration is transferred 40 μl into three wells. 10 μl of 40 mM ATP-2Na solution is added to all wells and the plate is incubated at 37° C. for 30 minutes. […] The reaction is finished by adding 100 μl of stop solution to each well and the optical density in each well is measured at 405 nm with a microplate reader (BioTek, USA). The tyrosine kinase activity in each sample is calculated from the standard curve obtained from the absorbance values of the standard solutions with the kit (Chan W Y, Lau P M, Yeung K W, Kong S K. The second generation tyrosine kinase inhibitor dasatinib induced eryptosis in human erythrocytes—An in vitro study. Toxicol Lett. 2018; 295:10-21). […]
The effects of 11 2-indolinone compounds (Y1, Y2, Y3, Y4, Y5, Y8, Y14, Y21, Y23, 20C and 22C) having the structure of formula (5), which are prominent with their cytotoxicity in A498, MIAPaCa-2 and HCT-116 cancer cell lines and nontoxic properties in healthy cells, on general tyrosine kinase activity in cancer cells are determined.
In general terms: An ELISA detects its analyte on a solid surface through an enzyme-linked reagent.

Data set [15] deals with HUVEC cells. Put plainly: MTT cytotoxicity, healthy cells HUVEC. To be noted: for pIC50: MTT, no * mark (incubation time not specified). The data set is classed as cell-based, human. In a few lines: as §2
The subject of data set [16] is general tyrosine kinase activity in HCT116 colon cancer cells. Put plainly: General tyrosine kinase activity (ELISA) in HCT-116 cells. The data set is classed as cell-based, human. To be noted: 72 hours, IC50 concentration. How it is done:
as §3, with “determination.” for “determination. After the extracts obtained from the control and experimental groups are diluted 1:25, 40 μl extracts is transferred to two wells in the 96-well plate in the kit. In addition, the standard solution in the kit is diluted according to the kit instructions and each concentration is transferred 40 μl into three wells. 10 μl of 40 mM ATP-2Na solution is added to all wells and the plate is incubated at 37° C. for 30 minutes.”

The test system of data set [17] is FGFR1. Particulars: Liang et al. 2012; cited from earlier work.
Data set [18] concerns primary tumor. Particulars: combination with docetaxel, Patyna et al. 2006; cited from earlier work.
Data set [19] has as its system BL6-B16 melanoma and E0771 breast cancer cells. To be noted: Morigi et al. 2019; cited from earlier work.
The mark [20] stands for this setting: no * mark (incubation time not specified).
Where [21] appears, read: *: effective 72 hours after incubation.

pIC50: −log10 of the molar value. Some results are limits rather than exact numbers.

With `Cc1ccc(-n2cc(-c3ccc(/C=C4\C(=O)Nc5ccccc54)cc3)nn2)cc1` [III], in data set [1], the cytotoxicity vs sunitinib result is “better cytotoxicity on HT-29 and MKN-45 cells”. The “inhibitory effect on angiogenesis” value in data set [2] was “confirmed in vivo”. In data set [3], the “toxicity to HUVEC vs sunitinib” value is reported as “less toxic to HUVEC cell line than sunitinib”. Besides, in data set [4], the “inhibitory activity on VEGFR-2 vs sunitinib” value is listed as “greater inhibitory activity on VEGFR-2”.
As to `Cn1cc(/C=C2\C(=O)N(Cc3ccccc3)c3ccc(Cl)cc32)c2ccccc21` [Y23], the negative logarithm of the IC50 (pIC50) (as a rule, the negative decadic logarithm of the IC50, by convention in mol/L) is under 5.00 in data set [5]; 5.30 in [6] (setting [20]); 5.38 in data set [7]; 5.33 in data set [8]; 5.31 in [9]; under 5.00 in data set [10]. The values for the negative-log IC50 (pIC50) in [12] (setting [20]), in [13] and in data set [15] were 6.05, 5.79 and 5.38, respectively. Moreover, the “Selectivite Index (SI), MCF-10F/Beas2b (Table 1)” value in data set [11] (MCF-10F/Beas2b vs breast or kidney cancer cells, cancer line not given) was over 11.23. Further, the selectivity index in [12] (MCF-10F/Beas2b vs A498) is over 11. In data set [14], the “general tyrosine kinase activity compared to control” value is on record as “did not cause a significant change”. Also, the “Selectivite Index (SI), HUVEC (Table 1)” value in [15] (HUVEC vs breast or kidney cancer cells, cancer line not given) is given as 4.70.
With `Cc1cccc(CN2C(=O)/C(=C\c3c[nH]c4ccccc34)c3cc(Cl)ccc32)c1` [20C], the negative logarithm of the IC50 (pIC50) in data set [5] was 5.86; in [6] (setting [21]), 5.21; in [7] it was 5.94; in data set [8], under 5.00; in data set [9] it was under 5.00; in data set [10], 5.39. Besides, the pIC50 in [11] (MTT, *: effective 72 hours after incubation) was 5.43; in data set [12] (setting [21]), 6.01; in data set [13], 6.57; in data set [15], 5.82. Further, in data set [11] (MCF-10F/Beas2b vs colon or pancreas cancer cells, cancer line not given), the “Selectivite Index, MCF-10F/Beas2b (Table 2)” value was found to be 13.63. Besides, the “Selectivite Index, HUVEC (Table 2)” value in [15] (HUVEC vs colon or pancreas cancer cells, cancer line not given) stood at 5.63. Besides, in data set [16], the “tyrosine kinase activity compared to control” value is “did not cause a significant change”.
For the compound `Cc1c[nH]c(/C=C2\C(=O)Nc3ccccc32)c1CCC(=O)O` [SU5402, 3-[4-methyl-2-[(Z)-(2-oxo-1H-indol-3-ylidene)methyl]-1H-pyrrol-3-yl]propanoic acid], the “inhibitory activity against FGFR1 vs SU4984” value in [17] is listed as “better inhibitory activity against FGFR1 than SU4984”.
Take `Cc1[nH]c(/C=C2\C(=O)Nc3ccc(F)cc32)c(C)c1C(=O)NCC(O)CN1CCOCC1` (stereo not drawn) [SU14813]: in [18], the “inhibition of primary tumor growth and survival” value was “significantly improve both inhibition of primary tumor growth and survival of tumor-bearing mice”.
With `O=C1Nc2ccccc2/C1=C/c1nc2sccn2c1-c1ccncc1` [I], in data set [19], the tumor volume result is “reduction in tumor volume”.
